Data as given in patent US9539298B2, “Lissencephaly therapeutic agent” (OSAKA CITY UNIVERSITY, priority 2010, dated 2017).

What was measured:
[1] = test system: LIS1 heterozygous mouse embryos; test: LIS1 protein in mouse embryo brains after SNJ-1945 intraperitoneal administration; type: in vivo
Procedure: A neo(−)129S-Pafah1b1^tm2Awb/J homozygous male mouse lacking neo gene was mated with five homozygous EII-Cre transgenic female mice (FVB/N-Tg (EIIa-cre) C5379Lmgd/J, The Jackson Laboratory) by raising them in the same mouse cage. In total, six sets of mouse cages were prepared for the mating experiment. The neo(−)129S-Pafah1b1^tm2Awb/J homozygous mouse were prepared in the same manner as above. Plug check (confirmation of mating) was carried out every morning between 7 and 10 am, thereby determining the gestation cycle. SNJ-1945 was dissolved in dimethyl sulfoxide (DMSO; Sigma, D8779) at a concentration of 100 mg/ml, and intraperitoneally injected to the pregnant mice so that the administration amount became 100 μg per gram of body weight upon Day 12 of embryo period (E12) (intraperitoneal administration). To determine the effect of SNJ-1945 administration, LIS1 proteins of normal mouse embryos and those of LIS1 heterozygous mouse embryos (administered with SNJ-1945) were measured. […]
Pregnant mice were killed by cervical fracture, and the mouse embryos were immediately isolated to obtain the brain tissues. For the measurement of LIS1 protein amount, the brain weights were immediately measured as soon as the brains were removed.

[2] = test system: Lis1+/− mouse embryonic fibroblasts (MEF); test: Change in LIS1 protein amount in cells by SNJ-1945 (western blotting); type: cell-based; conditions: Lis1+/− MEF treated with SNJ-1945, western blotting, FIG. 1
Procedure: Fibroblasts (MEF; mouse embryonic fibroblasts) were established from five each of LIS1 gene hetero-deficient and wild-type mice (12.5- to 14.5-day-old embryos). The fibroblasts were established as follows. Pregnant mice were killed by cervical fracture, and the mouse embryos were immediately isolated under a germ-free condition. After the heads and visceral tissues were removed with tweezers, the mouse embryos were dissected with scissors. 10 ml of Trypsin-EDTA (Gibco, 25200) was added to each dissected tissue fraction, and the resulting liquid was placed in a 50 ml plastic tube (Nunc, 373687) to be subjected to 30-minute incubation at 37° C. After incubation, 10 ml of fetal bovine serum (Equitech-Bio, Inc., SFBM30-1798) was added, followed by pipetting with a 10 ml pipette (Nunc, 159633), thereby isolating the cells. After the cells were allowed to stand at room temperature for 5 minutes, the supernatant was collected. […]
Using the cells, the influence of SNJ-1945 on the LIS protein amount in each cell was analyzed as follows. […] After determination of protein quantity, 10 μg of protein was placed on each lane. After isolation using a 10% acrylic gel (SDS-PAGE), the protein was transferred to an Immobilon membrane (Millipore, IPVH00010), and LIS and DIC (dynein intermediate chain: reflecting the dynein amount) were detected. […] was detected to be used as a protein amount reference. […]

For COCCOCCOC(=O)N[C@@H](CC(C)C)C(=O)N[C@@H](Cc1ccccc1)C(=O)C(=O)NC1CC1 [compound 17, ((1S)-1-((((1S)-1-Benzyl-2,3-dioxo-3-(cyclopropylamino)propyl)amino)carbonyl)-3-methylbutyl)carbamic acid 5-methoxy-3-oxapentyl ester], the “LIS1 protein amount in embryo brain” value ([1]; 100 μg per gram of body weight IP to pregnant mice, E12, FIG. 6) was “recovered to a substantially normal level”, the “duration of the effect on LIS1 protein after a single dose” value ([1]; 100 μg/g IP to pregnant mice, E12) was “continued for at least three days” and the “LIS protein amount in cells” value [2] was “the decrease in the LIS protein amount was recovered”.
